Two compounds from patent US10517296B2, “Insect pest control material” ([…] Control Consortium, priority 2015, dated 2019) can be followed below.

The test system of assay [1] is Anopheles gambiae Kisumu-strain. The assay can be described thus: Basic insecticidal activity, topical application method (Test Example 1). Type of assay: in vivo. The following applies: for 50% Lethal Dose (LD50): female adult Anopheles gambiae Kisumu-strain, topical 0.3 μL acetone solution, mortality after 24 hours, probit method; for Relative Efficacy: ratio of LD50 values relative to Deltamethrin (=1), Kisumu-strain. The protocol: (§1) The basic insecticidal activity of the present compound was examined using a topical application method. Various concentrations of acetone solutions of the present compound were previously prepared. […] After the treatment, the female adults of Cancer Vieja Madara mosquito were moved into a plastic cup (having a diameter of 9 cm and a height of about 4.5 cm), and was fed with 5% sugar water. The mortality after 24 hours was examined. The number of the tested female adults of Cancer Vieja Madara mosquito was 10 heads per each one concentration in two replicate experiments. The 50% lethal dose (the LD50 value) of the present compound was calculated from the test result using probit method. The same experiment was conducted using Deltamethrin as a control. The lower 50% lethal dose of a compound means the higher basic insecticidal activity of the compound. The ratio of the LD50 value of the present compound relative to the LD50 value of Deltamethrin was calculated to acquire the relative efficacy of the present compound to Deltamethrin.

In assay [2] the test system is Anopheles gambiae VK7-strain. As to the kind of experiment: Basic insecticidal activity, topical application method, pyrethroid-resistive strain (Test Example 3). The format is in vivo. The conditions noted are these: for 50% Lethal Dose (LD50): pyrethroid-resistive female adult Anopheles gambiae VK7-strain, topical application, mortality after 24 hours; for Relative Efficacy: ratio of LD50 values relative to Deltamethrin (=1), VK7-strain. The protocol: as §1
The basic insecticidal activity of each of the present compound and Deltamethrin was examined using the same method as that used in Test Example 1. Here the tested female adults of Cancer Vieja Madara mosquito were pyrethroid-resistive female adults of Cancer Vieja Madara mosquito (Anopheles gambiae VK7-strain), and the number of the tested insects was 10 heads per each one concentration in two replicate experiments. The ratio of the LD50 value of the present compound relative to the LD50 value of Deltamethrin was calculated to acquire the relative efficacy of the present compound to Deltamethrin.

Take `CC1(C)[C@H](C(=O)O[C@H](C#N)c2cccc(Oc3ccccc3)c2)[C@@H]1C=C(Br)Br` [Deltamethrin]: in assay [1], the “50% Lethal Dose (LD50)” value is reported as 0.000094 μg/female and the “Relative Efficacy” value was found to be 1. For the same compound, in assay [2], the “50% Lethal Dose (LD50)” value was 0.00104 μg/female and the “Relative Efficacy” value amounted to 1.

As to `CCc1ncnc(NCCc2ccc(C(F)(F)F)cc2)c1Cl` [The present compound, 5-chloro-4-ethyl-6-[2-(4-trifluoromethylphenyl)ethylamino]pyrimidine], the “50% Lethal Dose (LD50)” value in assay [1] is 0.0094 μg/female; in assay [2], 0.01833 μg/female. The “Relative Efficacy” value in assay [1] was 0.0100; in assay [2] it was 0.05674.
